Measurements as given in article PMC10382584, “Macrocyclization of linear molecules by deep learning to facilitate macrocyclic drug candidates discovery” (Nature Communications, 2023).
Values joined by “and” are separate entries in the source; they are usually repeats but may differ in a detail not shown here. Identical values can stand only once. Like-named read-outs stand apart in the source and are kept apart here.

Assays:
SET-2 cells = test: Cell proliferation assay (CCK-8), SET-2 cells; assay type: cell-based, human; conditions: for Inhibition (%): single wells of replicate 1 and replicate 2
Experimental: (§1) The human erythroid leukemia (HEL 92.1.7) cells were purchased from the American Type Culture Collection (ATCC, TIB-180), and the human megakaryoblastic (SET2) cells were obtained from German Collection of Microorganisms and Cell Cultures (DSMZ, ACC 608). The anti-proliferative activities of compounds were evaluated using WST-8 cell counting kit-8 (Elabscience). HEL and SET-2 cells were seeded at 5000 cells/well in 70 μL RPMI-1640 medium (Hyclon) with 10% FBS (Gibco) to the 96-well plate and incubated overnight at 37 °C with 5% CO2. The compounds were serially diluted in RPMI-1640 medium, and cells were treated separately with 30 μL various concentrations of compounds for 72 h. The final DMSO concentration in the culture wells was 0.1%, which had no effect on the cell viability. Finally, 10 μL of CCK-8 solution was added into the wells. 4 h later, the absorbance values at 450 nm were recorded. IC50 values were determined using GraphPad Prism v8.3.0, and three parallel experiments were performed.

DSS-induced colitis mice = test: In vivo efficacy study, DSS-induced colitis model; parameters: species or system male BALB/c mice; conditions: Fedratinib 10 mg/kg; for DAI score (Fig. 6b) / Body weight (Fig. 6a): individual mice
Experimental: Model mice were divided into four groups and eight mice were included in each group on day 8. […] Meanwhile, solvent was given intragastrically to the control group and model group. On day 15, the mice were sacrificed, and the length and weight of each colon were measured.
Body weight, the stool consistency, and the presence of blood in feces were recorded daily in the morning. […] The maximum score was 9, which was the sum of the scores. About 1-cm colon tissue, which is 0.5 cm away from the anal margin, was collected, and the ileocecal area was used for histopathological examination. After H&E staining, the tissues were scored under single-blind conditions to evaluate the levels of inflammation and tissue damage in the colons following the criteria proposed by ref. [62]. Statistical analyses were performed using SPSS v24.0.

In vivo PK study in mice = conditions: male, BALB/c, mouse, plasma, 5 mg/kg
Experimental: The mice were separately administered to a group of three mice per time point for intravenous (5 mg/kg) or oral administration (5 mg/kg). […] Then the samples were separated by centrifugation and analyzed by LC-MS/MS (XEVO TQ-S) to determine the plasma drug concentrations. The PK parameters were calculated using the noncompartment model with Phoenix WinNonLin v8.0. The animal experimental procedures were approved by the Medicine Research Ethics Committee of Hangzhou Leading Pharmatech Co., Ltd.

HEL cells = test: Cell proliferation assay (CCK-8), HEL cells; assay type: cell-based, human
Experimental: as §1
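For Cmax in this document: mice dosed intravenously or orally, three animals per time point, plasma drug levels quantified by LC-MS/MS, PK parameters derived by noncompartmental analysis in Phoenix WinNonLin.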
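For Tmax in this document: mice dosed intravenously or orally, three animals per time point, plasma drug levels quantified by LC-MS/MS, PK parameters derived by noncompartmental analysis in Phoenix WinNonLin.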

SMILES: Cc1cnc(Nc2ccc(OCCN3CCCC3)cc2)nc1Nc1cccc(S(=O)(=O)NC(C)(C)C)c1 [Fedratinib]
- IC50 (SET-2 cells; Homo sapiens, SET-2, 72 h, SET-2 cells, 72 h, mean ± SD, read-out: Cellular Antiproliferative Activity (IC50) SET-2): 1.12 ± 0.08 µM
- IC50 (SET-2 cells; Homo sapiens, SET-2, SET-2 cell lines, mean of two replicates, read-out: IC50/μM mean): 1.12 µM
- IC50 (SET-2 cells; Homo sapiens, SET-2, SET-2 cell lines, mean ± sd of two replicates, read-out: IC50/μM mean ± sd): 1.12 ± 0.08 µM
- IC50 (SET-2 cells; Homo sapiens, SET-2, SET-2 cell lines, value of each single replicate, read-out: IC50/μM): 1.07 µM
- Inhibition (%) (SET-2 cells; SET-2 cell lines, C 0.0977 μM): 12.0389% and 5.1759% and -0.6577% and 17.763% and 22.009% and 18.591%
- Inhibition (%) (SET-2 cells; SET-2 cell lines, C 0.1953 μM): 22.4478% and 11.8101% and 6.6629% and 13.309% and 23.874% and 25.324%
- Inhibition (%) (SET-2 cells; SET-2 cell lines, C 0.3906 μM): 33.6574% and 13.6403% and 14.6697% and 30.399% and 33.402% and 33.506%
- Inhibition (%) (SET-2 cells; SET-2 cell lines, C 0.7813 μM): 33.8862% and 39.7198% and 32.9711% and 35.163% and 37.960% and 48.110%
- Inhibition (%) (SET-2 cells; SET-2 cell lines, C 1.5625 μM): 69.3452% and 65.5705% and 67.2862% and 30.399% and 43.553% and 55.671%
- Inhibition (%) (SET-2 cells; SET-2 cell lines, C 3.1250 μM): 88.2185% and 85.2445% and 86.3883% and 75.039% and 80.010% and 81.357%
- Inhibition (%) (SET-2 cells; SET-2 cell lines, C 6.2500 μM): 86.3883% and 85.8164% and 88.9048% and 71.725% and 72.139% and 76.385%
- Inhibition (%) (SET-2 cells; SET-2 cell lines, C 12.5000 μM): 97.7123% and 97.3692% (2×) and 89.643% (2×) and 91.093%
- IC50 (SET-2 cells; SET-2 cell lines, value of each single replicate, read-out: IC50/μM): 1.16 µM
- histological scores (H&E, Ameho criteria) (DSS-induced colitis mice; 3.5% DSS colitis mice, compound 3 5 mg/kg): lower
- body weight change (DSS-induced colitis mice; 3.5% DSS colitis mice, compound 3 5 mg/kg, intragastric, day 8 to day 14): alleviate the decrease of body weight
- DAI score (Fig. 6b) (DSS-induced colitis mice; day 0): 0
- Body weight (Fig. 6a) (DSS-induced colitis mice; day 0, in g (unit assumed)): 22.2 and 22.7 and 23.9 and 22.6 and 19.9 and 23.6 and 20.6 and 23.1
- DAI score (Fig. 6b) (DSS-induced colitis mice; day 1): 1 (4×) and 0 (4×)
- Body weight (Fig. 6a) (DSS-induced colitis mice; day 1, in g (unit assumed)): 21.3 and 24.2 and 23.6 and 23.8 and 21.7 and 23.2 and 20.9 and 22
- DAI score (Fig. 6b) (DSS-induced colitis mice; day 2): 0 (3×) and 1 (5×)
- Body weight (Fig. 6a) (DSS-induced colitis mice; day 2, in g (unit assumed)): 22.6 and 23.8
- DAI score (Fig. 6b) (DSS-induced colitis mice; day 3): 0 (5×) and 1 (3×)
- Body weight (Fig. 6a) (DSS-induced colitis mice; day 4): 21.8 and 22.7 and 23.6 (2×) and 22.3 and 21.7 and 19.8 and 23.2
- DAI score (Fig. 6b) (DSS-induced colitis mice; day 4): 1 (5×) and 3 (2×) and 0
- DAI score (Fig. 6b) (DSS-induced colitis mice; day 5): 0 (3×) and 3 (2×) and 1 and 4 and 2
- Body weight (Fig. 6a) (DSS-induced colitis mice; day 5, in g (unit assumed)): 22 and 21.8 and 23.1 and 21 and 21.9 and 23.6 and 18.9 and 22.7
- DAI score (Fig. 6b) (DSS-induced colitis mice; day 6): 1 (4×) and 6 and 7 and 2 and 5
- Body weight (Fig. 6a) (DSS-induced colitis mice; day 6, in g (unit assumed)): 22.1 and 20.1 and 22.6 and 19.3 and 21.5 and 23.6 and 17.1 and 20.5
- Body weight (Fig. 6a) (DSS-induced colitis mice; day 7): 21.8 (2×) and 19 and 22.5 and 18.2 and 23.9 and 16 and 18.3
- DAI score (Fig. 6b) (DSS-induced colitis mice; day 7): 2 (2×) and 7 (3×) and 0 and 3 and 6
- DAI score (Fig. 6b) (DSS-induced colitis mice; day 8): 0 (5×) and 3 (2×) and 6
- Body weight (Fig. 6a) (DSS-induced colitis mice; day 8, in g (unit assumed)): 22.3 and 18.8 and 23.8 and 18.6 and 21.7 and 24 and 15.6 and 17.2
- DAI score (Fig. 6b) (DSS-induced colitis mice; day 9): 0 (5×) and 3 (2×) and 1
- Body weight (Fig. 6a) (DSS-induced colitis mice; day 9, in g (unit assumed)): 22.3 and 19.4 and 23.7 and 19.1 and 19.3 and 24.2 and 15.3
- DAI score (Fig. 6b) (DSS-induced colitis mice; day 10): 2 (2×) and 1 (3×) and 0 (2×)
- Body weight (Fig. 6a) (DSS-induced colitis mice; day 10, in g (unit assumed)): 21.6 and 18.4 and 23.8 and 19.7 and 19 and 23.6 and 15.4
- DAI score (Fig. 6b) (DSS-induced colitis mice; day 11): 0 (5×) and 1 and 2
- Body weight (Fig. 6a) (DSS-induced colitis mice; day 11, in g (unit assumed)): 21.9 and 18.6 and 23.5 and 20.2 and 18.7 and 23.6 and 16
- DAI score (Fig. 6b) (DSS-induced colitis mice; day 12): 0 (5×) and 1
- Body weight (Fig. 6a) (DSS-induced colitis mice; day 12, in g (unit assumed)): 22.2 and 19.1 and 24.1 and 19.9 and 19.4 and 23.8 and 16
- Body weight (Fig. 6a) (DSS-induced colitis mice; day 13, in g (unit assumed)): 21.9 and 19.8 and 24.2 and 20.4 and 20.1 and 24 and 16.1
- Body weight (Fig. 6a) (DSS-induced colitis mice; day 14, in g (unit assumed)): 22.6 and 20.3 and 24.5 and 20.4 and 20.8 and 24.1 and 16.5
- HE staining score (Fig. 6d) (DSS-induced colitis mice; individual colon tissues (n = 5)): 1 and 3 and 0
- symptoms in DSS-induced murine colitis (DSS-induced colitis mice; compound 3 5 mg/kg): ameliorate the symptoms
- AUC(0-inf) (In vivo PK study in mice; iv): 227 ng·h/mL
- Cmax (In vivo PK study in mice; iv): 275 ng/mL
- Tmax (In vivo PK study in mice; iv): 4.98 min
- half-life (In vivo PK study in mice; iv): 18 min
- bioavailability (In vivo PK study in mice; oral): 11.7%
- AUC(0-inf) (In vivo PK study in mice; po): 50.2 ng·h/mL
- Cmax (In vivo PK study in mice; po): 6.81 ng/mL
- Tmax (In vivo PK study in mice; po): 60 min
- half-life (In vivo PK study in mice; po): 282 min
- Inhibition (%) (HEL cells; HEL cell lines, 0.0977 μM, single wells, replicates 1 and 2): 3.834% and 2.092% and -5.316% and -2.068% and -2.146% and 0.251%
- Inhibition (%) (HEL cells; HEL cell lines, 0.1953 μM, single wells, replicates 1 and 2): 5.577% and 4.096% and -7.320% and -6.244% and 7.056% and 1.643%
- Inhibition (%) (HEL cells; HEL cell lines, 0.3906 μM, single wells, replicates 1 and 2): 16.296% and 7.233% and 2.004% and -5.316% and 4.195% and -1.991%
- Inhibition (%) (HEL cells; HEL cell lines, 0.7813 μM, single wells, replicates 1 and 2): 26.492% and 16.296% and 14.205% and 10.690% and 13.319% and 1.875%
- Inhibition (%) (HEL cells; HEL cell lines, 1.5625 μM, single wells, replicates 1 and 2): 66.754% and 58.911% and 59.608% and 37.908% and 40.692% and 44.790%
- Inhibition (%) (HEL cells; HEL cell lines, 3.1250 μM, single wells, replicates 1 and 2, 3.125 µM): 88.628% and 87.669% and 91.881% and 90.412% and 89.871%
- Inhibition (%) (HEL cells; HEL cell lines, 6.2500 μM, single wells, replicates 1 and 2, 6.25 µM): 90.893% and 89.499% and 94.355% and 93.737% and 94.510%
- Inhibition (%) (HEL cells; HEL cell lines, 12.5000 μM, single wells, replicates 1 and 2, 12.5 µM): 91.590% and 91.503% and 95.902% (2×) and 96.056%
- IC50 (HEL cells; HEL cell lines, single-replicate fits, read-out: IC50/μM (individual replicates), cellular antiproliferative activity): 1.38 µM
- IC50 (HEL cells; Homo sapiens, HEL, 72 h, HEL cells, 72 h, mean ± SD, read-out: Cellular Antiproliferative Activity (IC50) HEL): 1.34 ± 0.06 µM
- inhibition at 3.125 µM (HEL cells; Homo sapiens, HEL, HEL cell lines, 3.1250 μM, single wells, replicates 1 and 2): 90.5%
- inhibition at 6.25 µM (HEL cells; Homo sapiens, HEL, HEL cell lines, 6.2500 μM, single wells, replicates 1 and 2): 92.1%
- inhibition at 12.5 µM (HEL cells; Homo sapiens, HEL, HEL cell lines, 12.5000 μM, single wells, replicates 1 and 2): 93.2%
- inhibition at 25 µM (HEL cells; Homo sapiens, HEL, HEL cell lines, […], single wells, replicates 1 and 2): 94.5%
- IC50 (HEL cells; Homo sapiens, HEL, HEL cell lines, mean of 2 replicates, read-out: IC50/μM mean, cellular antiproliferative activity): 1.34 µM
- IC50 (HEL cells; Homo sapiens, HEL, HEL cell lines, mean ± sd of 2 replicates, read-out: IC50/μM mean ± sd, cellular antiproliferative activity): 1.34 ± 0.06 µM
- IC50 (HEL cells; Homo sapiens, HEL, HEL cell lines, single-replicate fits, read-out: IC50/μM (individual replicates), cellular antiproliferative activity): 1.29 µM
